Source: the NIST ThermoML archive (doi:10.1016/j.jct.2006.03.021)
± gives the expanded uncertainty stated by the source.

Test: molar heat capacity at constant pressure
Details: 101.33 kPa, Crystal, Vacuum adiabatic calorimetry

O.OC[C@H]1O[C@@H](O[C@H]2O[C@H](CO)[C@@H](O)[C@H](O)[C@H]2O)[C@H](O)[C@@H](O)[C@@H]1O [α,β-trehalose monohydrate]
Details	molar heat capacity at constant pressure [J/K/mol]
12.15 K	6.701 ± 0.059
12.87 K	6.35 ± 0.056
13.89 K	7.774 ± 0.072
15 K	9.56 ± 0.09
15.06 K	9.688 ± 0.086
16.13 K	11.54 ± 0.098
17.15 K	13.35 ± 0.11
18.14 K	15.21 ± 0.12
19.1 K	17.06 ± 0.13
20 K	18.85 ± 0.15
20.02 K	18.86 ± 0.14
20.99 K	20.81 ± 0.16
21.98 K	22.87 ± 0.17
22.97 K	24.93 ± 0.18
23.99 K	27.06 ± 0.19
25.09 K	29.37 ± 0.21
26.28 K	31.89 ± 0.22
27.52 K	34.52 ± 0.23
28.79 K	37.22 ± 0.25
30 K	39.76 ± 0.26
30.14 K	40.07 ± 0.26
31.48 K	42.93 ± 0.28
32.83 K	45.73 ± 0.29
34.23 K	48.62 ± 0.31
35.64 K	51.52 ± 0.33
37.04 K	54.43 ± 0.35
38.44 K	57.19 ± 0.36
39.85 K	59.97 ± 0.38
40 K	60.3 ± 0.38
41.25 K	62.71 ± 0.4
42.67 K	65.48 ± 0.41
44.14 K	68.28 ± 0.43
45.66 K	71.1 ± 0.45
47.22 K	74 ± 0.47
48.83 K	76.91 ± 0.48
50 K	78.98 ± 0.5
50.46 K	79.86 ± 0.5
52.14 K	82.8 ± 0.52
53.84 K	85.77 ± 0.54
55.55 K	88.73 ± 0.56
56.47 K	90.18 ± 0.56
58.33 K	93.36 ± 0.58
60 K	96.14 ± 0.6
60.17 K	96.48 ± 0.6
62 K	99.53 ± 0.62
63.81 K	102.56 ± 0.64
65.62 K	105.58 ± 0.66
67.43 K	108.53 ± 0.68
69.25 K	111.51 ± 0.7
70 K	112.73 ± 0.7
71.08 K	114.46 ± 0.71
72.92 K	117.44 ± 0.73
74.76 K	120.43 ± 0.75
76.6 K	123.41 ± 0.77
78.42 K	126.41 ± 0.79
80 K	128.94 ± 0.8
80.24 K	129.3 ± 0.8
82.05 K	132.24 ± 0.82
83.88 K	135.15 ± 0.84
85.74 K	138.11 ± 0.86
87.62 K	141.12 ± 0.88
89.52 K	144.11 ± 0.9
90 K	144.87 ± 0.9
91.42 K	147.15 ± 0.92
93.33 K	150.17 ± 0.93
95.28 K	153.24 ± 0.95
97.28 K	156.4 ± 0.97
99.29 K	159.5 ± 0.99
100 K	160.59 ± 0.41
101.26 K	162.58 ± 0.42
103.21 K	165.61 ± 0.42
105.12 K	168.61 ± 0.43
107.01 K	171.53 ± 0.43
108.87 K	174.41 ± 0.44
110 K	176.15 ± 0.44
110.71 K	177.24 ± 0.44
112.52 K	180.05 ± 0.45
114.31 K	182.82 ± 0.46
116.08 K	185.5 ± 0.46
117.84 K	188.16 ± 0.47
119.57 K	190.8 ± 0.47
120 K	191.54 ± 0.47
121.29 K	193.41 ± 0.48
122.99 K	196.08 ± 0.48
124.68 K	198.72 ± 0.49
126.4 K	201.25 ± 0.49
128.14 K	203.9 ± 0.5
129.89 K	206.59 ± 0.5
130 K	206.76 ± 0.5
131.7 K	209.4 ± 0.51
133.54 K	212.03 ± 0.52
135.4 K	214.95 ± 0.52
137.31 K	217.83 ± 0.53
139.29 K	220.87 ± 0.53
140 K	221.8 ± 0.54
141.32 K	223.89 ± 0.54
